From ChEMBL document CHEMBL4043085, “Anisucoumaramide, a Bioactive Coumarin from Clausena anisum-olens” (J Nat Prod, 2017)

Assays:
[1] = target: T1, Amine oxidase [flavin-containing] A (Homo sapiens, UniProt P21397); assay: Inhibition of human recombinant MAOA assessed as reduction in H2O2 production from p-tyramine at 100 uM incubated for 15 mins by Amplex red reagent based fluorimetric method; settings: 0.25 h
T1 sequence (P21397 whole entry): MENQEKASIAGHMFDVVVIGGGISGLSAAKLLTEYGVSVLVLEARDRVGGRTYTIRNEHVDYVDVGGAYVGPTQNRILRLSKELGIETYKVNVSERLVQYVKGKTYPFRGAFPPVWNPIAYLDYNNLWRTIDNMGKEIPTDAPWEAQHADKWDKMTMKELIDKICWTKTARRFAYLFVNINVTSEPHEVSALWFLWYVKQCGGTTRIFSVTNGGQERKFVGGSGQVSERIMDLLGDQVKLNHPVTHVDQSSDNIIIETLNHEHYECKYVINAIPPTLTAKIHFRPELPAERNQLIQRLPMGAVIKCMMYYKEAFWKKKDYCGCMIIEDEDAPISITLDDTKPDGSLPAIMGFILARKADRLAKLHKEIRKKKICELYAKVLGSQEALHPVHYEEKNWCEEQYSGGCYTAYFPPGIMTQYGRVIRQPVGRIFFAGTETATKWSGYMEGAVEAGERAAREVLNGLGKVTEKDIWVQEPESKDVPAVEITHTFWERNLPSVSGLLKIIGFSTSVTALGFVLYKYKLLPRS

[2] = target: T2, Amine oxidase [flavin-containing] B (Homo sapiens, UniProt P27338); assay: Inhibition of human recombinant MAOB assessed as reduction in H2O2 production from p-tyramine incubated for 15 mins by Amplex red reagent based fluorimetric method
T2 sequence (P27338 whole entry): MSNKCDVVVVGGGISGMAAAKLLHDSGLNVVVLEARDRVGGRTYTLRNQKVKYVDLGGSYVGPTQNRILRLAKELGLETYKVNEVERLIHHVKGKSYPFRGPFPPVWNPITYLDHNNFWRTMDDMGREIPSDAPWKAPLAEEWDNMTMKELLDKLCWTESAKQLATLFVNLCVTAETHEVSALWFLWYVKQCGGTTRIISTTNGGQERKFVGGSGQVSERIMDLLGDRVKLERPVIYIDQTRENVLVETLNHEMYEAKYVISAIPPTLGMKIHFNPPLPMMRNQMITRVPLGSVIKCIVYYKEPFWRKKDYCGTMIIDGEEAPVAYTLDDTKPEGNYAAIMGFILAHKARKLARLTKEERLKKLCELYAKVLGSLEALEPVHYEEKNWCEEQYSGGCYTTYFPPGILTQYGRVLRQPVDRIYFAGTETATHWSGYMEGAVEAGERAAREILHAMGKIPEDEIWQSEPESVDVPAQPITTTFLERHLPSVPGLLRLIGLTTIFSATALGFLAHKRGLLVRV

Homo sapiens = species on record: Homo sapiens; assay: Selectivity index, ratio of IC50 for human recombinant MAOA to IC50 for human recombinant MAOB

inhibition (INH) [1]: Not Active | IC50 [2]: 144 nM | Ratio IC50 (Homo sapiens): > 696
Structure (SMILES): COc1c(OC/C=C(\C)C[C@@H]2C=C(CCC(N)=O)C(=O)O2)ccc2ccc(=O)oc12
